Data as given in patent publication US10800792B2, “Inhibitors of Bruton's tyrosine kinase and method of their use” (JANSSEN PHARMACEUTICA NV, priority 2015, dated 2020).

Target: unphosphorylated-BTK kinase domain (UP-BTK), GST-tagged human BTK (389-659aa) (Homo sapiens (Human), UniProt Q06187)
Experiment: BTK kinase Lanthascreen binding assay
Conditions: unphosphorylated-BTK kinase domain, 50 nM Tracer 236, 60 minutes; pIC50 = negative log of the IC50 in molar
Summary of the method: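 Measures how well compounds compete with a fluorescence-labelled tracer for binding to BTK in its unphosphorylated state. IC50 values were fitted and expressed as pIC50 (negative logarithm of the molar IC50).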

unphosphorylated-BTK kinase domain (UP-BTK), GST-tagged human BTK (389-659aa), sequence (Q06187 389-659): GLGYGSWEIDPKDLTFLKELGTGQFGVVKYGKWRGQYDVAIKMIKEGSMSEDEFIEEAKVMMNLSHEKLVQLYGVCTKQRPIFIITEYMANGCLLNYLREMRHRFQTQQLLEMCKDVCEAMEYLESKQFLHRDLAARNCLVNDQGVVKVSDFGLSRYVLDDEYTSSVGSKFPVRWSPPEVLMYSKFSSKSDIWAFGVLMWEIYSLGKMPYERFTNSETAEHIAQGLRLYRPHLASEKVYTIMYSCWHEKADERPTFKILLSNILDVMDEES

BTK_I_binding pIC50	Compound
6.2	O=C(NC1CCCNC1=O)c1sc2nccc3c2c1NC(=O)N3c1ccc(Oc2ccccc2)cc1 (stereo not shown) [Example 458, 4-Oxo-N-(2-oxopiperidin-3-yl)-5-(4-phenoxyphenyl)-4,5-dihydro-3H-1-thia-3,5,8-triazaacenaphthylene-2-carboxamide]
6.4	O=C(NCC1CCCO1)c1sc2nccc3c2c1NC(=O)N3c1ccc(Oc2ccccc2)cc1 (stereo not shown) [Example 462, 4-Oxo-5-(4-phenoxyphenyl)-N-((tetrahydrofuran-2-yl)methyl)-4,5-dihydro-3H-1-thia-3,5,8-triazaacenaphthylene-2-carboxamide]
7.9	C=CC(=O)N1C[C@H](NC(=O)c2sc3nccc4c3c2NC(=O)N4c2ccc(Oc3ccccc3)cc2)[C@@H](O)C1 [Example 463, N-((3S,4S)-1-Acryloyl-4-hydroxypyrrolidin-3-yl)-4-oxo-5-(4-phenoxyphenyl)-4,5-dihydro-3H-1-thia-3,5,8-triazaacenaphthylene-2-carboxamide]
6.8	O=C(N[C@H]1CNC[C@@H]1O)c1sc2nccc3c2c1NC(=O)N3c1ccc(Oc2ccccc2)cc1 [Example 464, N-((3S,4S)-4-Hydroxypyrrolidin-3-yl)-4-oxo-5-(4-phenoxyphenyl)-4,5-dihydro-3H-1-thia-3,5,8-triazaacenaphthylene-2-carboxamide]
6.2	O=C(N[C@@H]1CCCNC1)c1sc2nccc3c2c1NC(=O)N3c1cccc(Cc2ccccc2)c1 [Example 465, (R)-5-(3-Benzylphenyl)-4-oxo-N-(piperidin-3-yl)-4,5-dihydro-3H-1-thia-3,5,8-triazaacenaphthylene-2-carboxamide]
6.7	O=C(N[C@@H]1CCCNC1)c1sc2nccc3c2c1NC(=O)N3c1cccc(Oc2ccccc2)c1 [Example 466, (R)-4-Oxo-5-(3-phenoxyphenyl)-N-(piperidin-3-yl)-4,5-dihydro-3H-1-thia-3,5,8-triazaacenaphthylene-2-carboxamide]
7.4	C=CC(=O)N1CC(NC(=O)c2sc3nccc4c3c2NC(=O)N4c2ccc(Oc3ccccc3)cc2C)C1 [Example 496, N-(1-Acryloylazetidin-3-yl)-5-(*S)-(2-methyl-4-phenoxyphenyl)-4-oxo-4,5-dihydro-3H-1-thia-3,5,8-triazaacenaphthylene-2-carboxamide]
7.9	C=CC(=O)N1CCC[C@@H](NC(=O)c2sc3nccc4c3c2NC(=O)N4c2ncc(Oc3ccccc3)cc2C)C1 [Example 497, (R)—N-(1-Acryloylpiperidin-3-yl)-5-(3-methyl-5-phenoxypyridin-2-yl)-4-oxo-4,5-dihydro-3H-1-thia-3,5,8-triazaacenaphthylene-2-carboxamide]
8.0	C=CC(=O)N1CCC[C@@H](NC(=O)c2sc3nccc4c3c2NC(=O)N4c2cccc(-c3ccccc3C)c2)C1 [Example 504, (R)—N-(1-Acryloylpiperidin-3-yl)-5-(2′-methyl-[1,1′-biphenyl]-3-yl)-4-oxo-4,5-dihydro-3H-1-thia-3,5,8-triazaacenaphthylene-2-carboxamide]
7.9	C=CC(=O)N1CCC[C@@H](NC(=O)c2sc3nccc4c3c2NC(=O)N4c2ccc(Oc3ccccc3)nc2)C1 [Example 506, (R)—N-(1-Acryloylpiperidin-3-yl)-4-oxo-5-(6-phenoxypyridin-3-yl)-4,5-dihydro-3H-1-thia-3,5,8-triazaacenaphthylene-2-carboxamide]
8.0	C=CC(=O)N1CCC[C@@H](NC(=O)c2sc3nccc4c3c2NC(=O)N4c2cccc(-c3ccccc3Cl)c2)C1 [Example 510, (R)—N-(1-Acryloylpiperidin-3-yl)-5-(2′-chloro-[1,1′-biphenyl]-3-yl)-4-oxo-4,5-dihydro-3H-1-thia-3,5,8-triazaacenaphthylene-2-carboxamide]
7.8	C=CC(=O)N1CCC[C@@H](NC(=O)c2sc3nccc4c3c2NC(=O)N4c2ccnc(-c3ccccc3)c2)C1 [Example 512, (R)—N-(1-Acryloylpiperidin-3-yl)-4-oxo-5-(2-phenylpyridin-4-yl)-4,5-dihydro-3H-1-thia-3,5,8-triazaacenaphthylene-2-carboxamide]
8.2	C=CC(=O)N1CCC[C@@H](NC(=O)c2sc3nccc4c3c2NC(=O)N4c2ccc(Oc3ccccc3)cn2)C1 [Example 513, (R)—N-(1-Acryloylpiperidin-3-yl)-4-oxo-5-(5-phenoxypyridin-2-yl)-4,5-dihydro-3H-1-thia-3,5,8-triazaacenaphthylene-2-carboxamide]
7.7	C=CC(=O)N1CCC[C@@H](NC(=O)c2sc3nccc4c3c2NC(=O)N4c2cccc(Cc3ccccc3)c2)C1 [Example 516, (R)—N-(1-Acryloylpiperidin-3-yl)-5-(3-benzylphenyl)-4-oxo-4,5-dihydro-3H-1-thia-3,5,8-triazaacenaphthylene-2-carboxamide]
8.1	C=CC(=O)N1CCC[C@@H](NC(=O)c2sc3nccc4c3c2NC(=O)N4c2cccc(Oc3ccccc3)c2)C1 [Example 527, (R)—N-(1-Acryloylpiperidin-3-yl)-4-oxo-5-(3-phenoxyphenyl)-4,5-dihydro-3H-1-thia-3,5,8-triazaacenaphthylene-2-carboxamide]

The next lines start with the molecule.

Compound	BTK_I_binding pIC50
C=CC(=O)N1CCC[C@@H](NC(=O)c2sc3nccc4c3c2NC(=O)N4c2ccc(OC3CCC3)cc2)C1 [Example 457, (R)—N-(1-Acryloylpiperidin-3-yl)-5-(4-cyclobutoxyphenyl)-4-oxo-4,5-dihydro-3H-1-thia-3,5,8-triazaacenaphthylene-2-carboxamide]	7.6
COc1ccc(N2C(=O)Nc3c(C(=O)N[C@@H]4CCCNC4)sc4nccc2c34)cc1C(F)(F)F [Example 459, (R)-5-(4-Methoxy-3-(trifluoromethyl)phenyl)-4-oxo-N-(piperidin-3-yl)-4,5-dihydro-3H-1-thia-3,5,8-triazaacenaphthylene-2-carboxamide]	<5
Cc1ccc(N2C(=O)Nc3c(C(=O)N[C@@H]4CCCNC4)sc4nccc2c34)cc1Cl [Example 460, (R)-5-(3-Chloro-4-methylphenyl)-4-oxo-N-(piperidin-3-yl)-4,5-dihydro-3H-1-thia-3,5,8-triazaacenaphthylene-2-carboxamide]	5.3
Cc1ccc(N2C(=O)Nc3c(C(=O)N[C@@H]4CCCNC4)sc4nccc2c34)cc1C(F)(F)F [Example 461, (R)-5-(4-Methyl-3-(trifluoromethyl)phenyl)-4-oxo-N-(piperidin-3-yl)-4,5-dihydro-3H-1-thia-3,5,8-triazaacenaphthylene-2-carboxamide]	5.0
C=CC(=O)N1CCC[C@@H](NC(=O)c2sc3nccc4c3c2NC(=O)N4c2cccc(-c3cccc(F)c3F)c2)C1 [Example 498, (R)—N-(1-Acryloylpiperidin-3-yl)-5-(2′,3′-difluoro-[1,1′-biphenyl]-3-yl)-4-oxo-4,5-dihydro-3H-1-thia-3,5,8-triazaacenaphthylene-2-carboxamide]	7.8
C=CC(=O)N1CCC[C@@H](NC(=O)c2sc3nccc4c3c2NC(=O)N4c2cccc(-c3cccc(F)c3)c2)C1 [Example 500, (R)—N-(1-Acryloylpiperidin-3-yl)-5-(3′-fluoro-[1,1′-biphenyl]-3-yl)-4-oxo-4,5-dihydro-3H-1-thia-3,5,8-triazaacenaphthylene-2-carboxamide]	8.1
C=CC(=O)N1CCC[C@@H](NC(=O)c2sc3nccc4c3c2NC(=O)N4c2cccc(-c3cccc(Cl)c3)c2)C1 [Example 507, (R)—N-(1-Acryloylpiperidin-3-yl)-5-(3′-chloro-[1,1′-biphenyl]-3-yl)-4-oxo-4,5-dihydro-3H-1-thia-3,5,8-triazaacenaphthylene-2-carboxamide]	7.8
C=CC(=O)N1CCC[C@@H](NC(=O)c2sc3nccc4c3c2NC(=O)N4c2cccc(-c3ccc(F)cc3F)c2)C1 [Example 515, (R)—N-(1-Acryloylpiperidin-3-yl)-5-(2′,4′-difluoro-[1,1′-biphenyl]-3-yl)-4-oxo-4,5-dihydro-3H-1-thia-3,5,8-triazaacenaphthylene-2-carboxamide]	7.7
C=CC(=O)N1CCC[C@@H](NC(=O)c2sc3nccc4c3c2NC(=O)N4c2cccc(-c3cccc(C)c3)c2)C1 [Example 517, (R)—N-(1-Acryloylpiperidin-3-yl)-5-(3′-methyl-[1,1′-biphenyl]-3-yl)-4-oxo-4,5-dihydro-3H-1-thia-3,5,8-triazaacenaphthylene-2-carboxamide]	7.5
C=CC(=O)N1CCC[C@@H](NC(=O)c2sc3nccc4c3c2NC(=O)N4c2cccc(C3CCCCC3)c2)C1 [Example 519, (R)—N-(1-Acryloylpiperidin-3-yl)-5-(3-cyclohexylphenyl)-4-oxo-4,5-dihydro-3H-1-thia-3,5,8-triazaacenaphthylene-2-carboxamide]	7.3
C=CC(=O)N1CCC[C@@H](NC(=O)c2sc3nccc4c3c2NC(=O)N4c2cccc(-c3ccc(C)cc3)c2)C1 [Example 521, (R)—N-(1-Acryloylpiperidin-3-yl)-5-(4′-methyl-[1,1′-biphenyl]-3-yl)-4-oxo-4,5-dihydro-3H-1-thia-3,5,8-triazaacenaphthylene-2-carboxamide]	7.5
C=CC(=O)N1CCC[C@@H](NC(=O)c2sc3nccc4c3c2NC(=O)N4c2ccc3c(c2)OC(F)(F)O3)C1 [Example 525, (R)—N-(1-Acryloylpiperidin-3-yl)-5-(2,2-difluorobenzo[d][1,3]dioxol-5-yl)-4-oxo-4,5-dihydro-3H-1-thia-3,5,8-triazaacenaphthylene-2-carboxamide]	7.5
C=CC(=O)N1CCC[C@@H](NC(=O)c2sc3nccc4c3c2NC(=O)N4c2cc(-c3ccccc3)ccn2)C1 [Example 526, (R)—N-(1-Acryloylpiperidin-3-yl)-4-oxo-5-(4-phenylpyridin-2-yl)-4,5-dihydro-3H-1-thia-3,5,8-triazaacenaphthylene-2-carboxamide]	7.6
